ChEMBL document CHEMBL1770093, “Potent antiprotozoal activity of a novel semi-synthetic berberine derivative” (Bioorg Med Chem Lett, 2011)
Counter-ions that a name gives are not always drawn.

Key:
Mus musculus = test: Toxicity in Leishmania amazonensis infected mouse visceral leishmaniasis model at > 1 mg/kg/day, ip; format: organism-based; design: route intraperitoneal; settings: in vivo
Vero = test: Cytotoxicity against african green monkey Vero cells; format: cell-based; settings: Chlorocebus sabaeus
Plasmodium falciparum = test: Antimalarial activity against Plasmodium falciparum by flow cytometry; format: functional, organism-based
Leishmania amazonensis [1] = test: Antileishmanial activity against Leishmania amazonensis infected in mouse visceral leishmaniasis model assessed as decrease in parasitemia level in liver at 1 mg/kg/day, ip administered 5 times; format: functional; design: scale not given: the % may be the effect or the level left; settings: route intraperitoneal
[2] = tested on: Trypanosoma brucei brucei; test: Antitrypanosomal activity against bloodstream form of Trypanosoma brucei brucei; format: functional, organism-based
[3] = Selectivity index, ratio of IC50 for african green monkey Vero cells to IC50 for bloodstream form of Trypanosoma brucei brucei; format: toxicity, cell-based; settings: read-out: Ratio IC50
Leishmania amazonensis [4] = test: Antileishmanial activity against intracellular Leishmania amazonensis infected in mouse peritoneal macrophages; format: functional, organism-based
Leishmania amazonensis [5] = test: Antileishmanial activity against Leishmania amazonensis infected in mouse visceral leishmaniasis model assessed as decrease in parasitemia level in liver at 10 mg/kg/day, ip administered 5 times; format: functional; design: scale not given: the % may be the effect or the level left; settings: route intraperitoneal

In the case of `CCC1(CC)c2c(ccc(OC)c2OC)C(=O)c2c3cc4c(cc3cc[n+]21)OCO4.[Cl-]`, the Activity (Mus musculus) is reported as “Toxic”, the IC50 (Vero) is reported as 91000 nM and the IC50 (Plasmodium falciparum) is reported as 36 nM. The Activity (Leishmania amazonensis [1]) was 47%, the IC50 [2] was 9.1 nM and the selectivity ratio [3] was 10000. For the same compound, the IC50 (Leishmania amazonensis [4]) was 180 nM.

For `C[C@@H]1[C@H](O)[C@@H](C)/C=C/C=C/C=C/C=C/C=C/C=C/C=C/[C@H](O[C@@H]2O[C@H](C)[C@@H](O)[C@H](N)[C@@H]2O)C[C@@H]2O[C@](O)(C[C@@H](O)C[C@@H](O)[C@H](O)CC[C@@H](O)C[C@@H](O)CC(=O)O[C@H]1C)C[C@H](O)[C@H]2C(=O)O` [AMPHOTERICIN B], the IC50 (Leishmania amazonensis [4]) was 120 nM.

`COc1ccc2cc3[n+](cc2c1OC)CCc1cc2c(cc1-3)OCO2` [BERBERINE SULFATE] gave an IC50 (Plasmodium falciparum) of 800 nM, an IC50 [2] of 1100 nM and an IC50 (Leishmania amazonensis [4]) of 17000 nM.

`CCCCCCCCCCCCCCCCOP(=O)([O-])OCC[N+](C)(C)C` [MILTEFOSINE] showed an Activity (Leishmania amazonensis [5]) of 98%.

In the case of `Cc1ccc(C(=O)Nc2ccc(S(=O)(=O)O)c3cc(S(=O)(=O)O)cc(S(=O)(=O)O)c23)cc1NC(=O)c1cccc(NC(=O)Nc2cccc(C(=O)Nc3cc(C(=O)Nc4ccc(S(=O)(=O)O)c5cc(S(=O)(=O)O)cc(S(=O)(=O)O)c45)ccc3C)c2)c1` [SURAMIN], the IC50 [2] is reported as 250 nM.
